# Patent publication US10126316B2, “Systems and methods for the measurement of tacrolimus in oral fluids by liquid chromatography tandem mass spectrometry” (Rhode Island Council on Postsecondary Education, Statutory …, priority 2016, dated 2018)
# Columns and labels:
# [1] = Study A: 12-hour profile of tacrolimus in oral fluid and blood; format: in vivo, human; conditions: for OF/blood Conc. (*100) / Tacrolimus Conc. in OF / Tacrolimus blood Conc.: geometric mean (95% CI)
# Procedure: Study A. Characterization of 12-hour profile of tacrolimus in OFs: The objective of this study was to obtain parallel blood and saliva samples for 12 h after the morning dose tacrolimus. On the morning of the study day, a venous blood sample (about 4 mL) was collected in ethylenediaminetetraacetic acid (EDTA) coated tubes. Simultaneously, OF samples were collected by passive drool (resting) in a siliconized plastic cup. After the administration of morning dose of immunosuppressive agents including tacrolimus, serial samples were collected at certain time points post-dose for 12-hour. All patients fasted overnight but prior to the start of sample collection, took a protein bar with their morning medication together with a glass of water. Thus, the samples obtained in this study was regarded as samples collected at non-fasting state.
# (§1) Sample extraction was preformed mixing 200 μL of the blood sample with 800 μL of precipitating solution [ZnSO4 (17.28 g/L) in water and methanol (30:70, v/v) containing 100 ng/mL ascomycin as internal standard]. After vortex mixing, samples were centrifuged for 10 min at 13,000 rpm.
# (§2) The concentration of tacrolimus in OF was measured using a validated LC-MS/MS method. […] TAC was eluted by gradient elution with 2 mM ammonium acetate/0.1 formic acid in water (mobile phase A) and in methanol (mobile phase B) at 0.4 mL/min flow rate. Initial mobile phase comprised of 50% solvent B, increased gradually to 98% over 0.5 min and maintained at this level until 1.8 min. Then mobile phase was returned to initial conditions within 10 s and maintained until the end of the run at 2.2 min to recondition the column for the next run. The elution time of TAC and internal standard was 1.0 min.
# (§3) A simple sample preparation and extraction procedure was followed. Briefly, 50 μL of homogenized OF sample was added to 100 μL of ACN precipitating solvent containing internal standard (ascomycin, 600 ng/L). After vortex mixing for 10 s, the mixture was centrifuged at 10,000 g for 5 min at 20° C. The supernatant was then transferred to an auto-sampler vial, and 10 μL was injected onto LC-MS/MS. The dynamic range of the assay was 30-4,800 pg/mL. […] The lower limit of quantification (LLOQ) for the assay was set at […] Acceptance criteria for quality controls (QCs) included in the assay was accuracy between 85-115% and CV <15%. Selectivity was assessed by inspecting the presence of noise or peaks in chromatograms blank OF samples injections (from 6 donors) and a comparison with LLOQ chromatogram.
# [2] = cited from earlier work
# [3] = Tacrolimus concentration in paired oral fluid and blood samples, all samples of Example 2; format: in vivo, human
# Source text: Study population: Samples included in this study were collected during two clinical studies from stable kidney transplant recipients. Protocol for each clinical study was approved by the Institutional Review Board of Rhode Island Hospital (Providence, R.I.). On the study day, all patients underwent a physical examination by the study physician and were asked to sign an informed consent prior to sample collection. All patients were on a triple immunosuppressant regimen that included tacrolimus, prednisone, and mycophenolic acid. All blood and OF samples were kept on dry ice until transfer to the Clinical Pharmacokinetics Research Laboratory at the University of Rhode Island and subsequent storage at −80° C. until further analysis.
# Upon thawing saliva samples, an aliquot of saliva was weighed with an analytical balance and the weight was recorded to establish the drug concentration as pg/mg weight. Moreover, the pH of saliva was measured by an Orion STAR A111 pH meter equipped with Micro Electrode from Thermo Scientific (Waltham, Mass., USA). To assess and quantify possible blood contamination of OF, a transferrin kit from Salimetrics LLC (State College, Pa., USA) was used (the validated assay range is ≤6.6 mg/dL). Transferrin (TRNs) is a plasma protein (Mw=76,000) that is used as a biomarker for presence of blood in OF. Transferrin quantification was performed using SpectraMax M5e Microplate Reader (Sunnyvale, Calif., USA).
# as §1, §2, §3
# [4] = Tacrolimus concentration in oral fluid and whole blood of kidney transplant recipients by LC-MS/MS (Example 1 patient samples); format: in vivo, human
# Procedure: The chromatographic conditions were optimized and the gradient elution described here provided the best separation of TAC and IS from suppressing phospholipid ions. Chromatographic separation was achieved using a mobile phase which consisted of water containing 2 mM ammonium acetate/0.1% (v/v) formic acid (solvent A); and MeOH containing 2 mM ammonium acetate/0.1% (v/v) formic acid (solvent B). The mobile phase was delivered at 0.4 mL/min flow rate. The run cycle started at 50% solvent (B) and increased gradually to 98% over 0.5 min and was maintained at this level until 1.8 min. To re-equilibrate the column for the next run, solvent (B) decreased within 0.1 min to 50% and remained at 50% until the end of the run at 2.2 minutes. The diversion valve was set to deliver the first 0.70 min and from 1.20 min until the end of each run to waste. The elution time of TAC and IS was 1.0 min.
# Mass spectrometry detection and quantification of TAC and ASC was performed in positive electrospray ionization (ESI) and multiple reaction monitoring (MRM) modes. Intellistart tool was used to obtain initial mass spectrometry parameters in low mass resolution analysis mode followed by manual tuning to achieve highest possible sensitivity. Final mass spectrometry parameters were as following: collision energy (CE)=22 and 20 for ASC and TAC respectively, cone voltage (CV)=28, capillary voltage (kV)=1.50, source temperature (° C.)=150, cone gas flow (L/hr)=25, desolvation gas flow (L/hr)=1000, and collision gas flow (mL/min)=0.15. Ammonium adducts [M+NH4]^+ were selected as precursors for MRM with transitions (m/z, Q1→Q3) of (m/z, 809.30→756.30) and (m/z, 821.30→768.35) for ASC and TAC, respectively.
# Study protocols were approved by Institutional Review Board at Rhode Island Hospital (Providence, R.I.). After giving informed consent, kidney transplant recipients attending kidney transplant clinics were recruited. […] All blood and OF samples were kept on ice until transferred to the Biomedical and Pharmaceutical Sciences (BPS) department at University of Rhode Island and stored at −80° C. until analyzed. […]
# [5] = Stability studies of TAC in oral fluid QC samples; format: physicochemical, human; conditions: for Stability, % Accuracy, Bench top / Stability, % Accuracy, Short-term 1 weeks / Stability, % Accuracy, Short-term 4 weeks / Stability, % Accuracy, Freeze & thaw / Stability, % Accuracy, Auto-sampler 24 hrs / Stability, % Accuracy, Auto-sampler 48 hrs: N = 3; for Stability, % Accuracy, Short-term 1 weeks / Stability, % Accuracy, Short-term 4 weeks: storage at −80° C.; for Stability, % Accuracy, Freeze & thaw: three freeze and thaw cycles; for Stability, % Accuracy, Auto-sampler 24 hrs / Stability, % Accuracy, Auto-sampler 48 hrs: extracted
# Procedure: Stability studies were performed by measuring TAC concentrations in QC1 and QC3, in three replicates. Freeze and thaw (after three freeze and thaw cycles), bench-top, auto-sampler (by re-injecting one of validation batch after it was left in the auto-sampler for 24 h and 48 h), and short-term stability up to one month were investigated.
# [6] = Study B: effect of oral fluid sample collection method on tacrolimus concentration; format: in vivo, human; conditions: geometric mean (95% CI)
# Procedure: Study B. Characterization of the effect of OF sample collection method: Blood samples were collected at pre-dose (C0) and then at two-hour after dose (C2). Patients have arrived at the hospital after an overnight fast and were remained fasted during collection of C0 samples. Matching OF samples were collected within ±5 min from blood sample time by passive drool (resting sample), after mouth rinsing with water (rinsed sample), and immediately after taking a sour candy to stimulate saliva production (stimulated sample). For the following samples, patients were asked to place a small piece of a commercial candy containing citric and tartaric acids (Sour Patch Kids, Mondelēz International, East Hanover, N.J., USA) in their mouth for 10 s with continues tongue movement. After C0 samples collection, patients were given a voucher for breakfast and were asked to report back to the study location shortly before sample collection at two-hour after dose (C2). The same process of blood and corresponding OF sample collection was followed at this time. The C2 samples were regarded as fed state.
# as §1, §2, §3
smiles,measurement,setting,value
C=CC[C@@H]1/C=C(\C)C[C@H](C)C[C@H](OC)[C@H]2O[C@@](O)(C(=O)C(=O)N3CCCC[C@H]3C(=O)O[C@H](/C(C)=C/[C@@H]3CC[C@@H](O)[C@H](OC)C3)[C@H](C)[C@@H](O)CC1=O)[C@H](C)C[C@@H]2OC.O [Tacrolimus],Concentration of TAC in blood,"[1]; 80 paired samples, 10 patients, fed state",5.7 ± 2.6 ng/mL
same,Concentration of TAC in oral fluids,"[1]; 80 paired samples, 10 patients, passive drool, fed state",0.885 ± 0.65 ng/mL
same,OF/blood Conc. (*100),[1]; All other times,"14 (11, 16)"
same,Tacrolimus Conc. in OF,[1]; All other times,"783 (627, 878) pg/mL"
same,Tacrolimus blood Conc.,[1]; All other times,"5.5 (5.0, 5.9) ng/mL"
same,OF/blood Conc. (*100),[1]; Peak (C2),"11 (7, 16)"
same,Tacrolimus Conc. in OF,[1]; Peak (C2),"573 (411, 599) pg/mL"
same,Tacrolimus blood Conc.,[1]; Peak (C2),"5.5 (4.6, 6.5) ng/mL"
same,OF/blood Conc. (*100),"[1]; Trough (C0, incl. C12)","11 (7, 18)"
same,Tacrolimus Conc. in OF,"[1]; Trough (C0, incl. C12)","430 (272, 680) pg/mL"
same,Tacrolimus blood Conc.,"[1]; Trough (C0, incl. C12)","3.8 (3.1, 4.7) ng/mL"
same,Fraction of tacrolimus distributed into red blood cells,[2],About 85%
same,Fraction of total TAC in blood present as free (unbound) form,[2],1%
same,Tacrolimus concentration in blood (mean±SD),[3]; 276 paired samples,7.4 ± 5 ng/mL
same,Tacrolimus concentration in blood (median),[3]; 276 paired samples,5.9 ng/mL
same,Concentration of tacrolimus in OFs (mean±SD),[3]; homogenized OFs,0.744 ± 0.666 ng/mL
same,Concentration of tacrolimus in OFs (median),[3]; homogenized OFs,0.505 ng/mL
same,Concentration of tacrolimus corrected for the weight of homogenized OF (mean±SD),[3]; in vivo,540 ± 485 pg/mg
same,Concentration of tacrolimus corrected for the weight of homogenized OF (median),[3]; in vivo,367 pg/mg
same,Concentration of TAC in OF (range),"[4]; 181 OF samples, stable transplant recipients",0.0117 to 2.8644 ng/mL
same,Calculated concentration of the one OF sample lower than LLOQ,[4]; one of 181 OF samples,around 8.5 pg/mL
same,Concentration of TAC in whole blood (range),[4]; stable transplant recipients,1.7 to 46.1 ng/mL
same,"Stability, % Accuracy, Bench top",[5]; QC1 (30 pg/mL) in OF,111.1%
same,"Stability, % Accuracy, Short-term 1 weeks",[5]; QC1 (30 pg/mL) in OF,98.4%
same,"Stability, % Accuracy, Short-term 4 weeks",[5]; QC1 (30 pg/mL) in OF,100.8%
same,"Stability, % Accuracy, Freeze & thaw",[5]; QC1 (30 pg/mL) in OF,108.2%
same,"Stability, % Accuracy, Auto-sampler 24 hrs",[5]; QC1 (30 pg/mL),105.3%
same,"Stability, % Accuracy, Auto-sampler 48 hrs",[5]; QC1 (30 pg/mL),102.5%
same,"Stability, % Accuracy, Bench top",[5]; QC3 (1200 pg/mL) in OF,98.8%
same,"Stability, % Accuracy, Short-term 1 weeks",[5]; QC3 (1200 pg/mL) in OF,98.9%
same,"Stability, % Accuracy, Short-term 4 weeks",[5]; QC3 (1200 pg/mL) in OF,102.9%
same,"Stability, % Accuracy, Freeze & thaw",[5]; QC3 (1200 pg/mL) in OF,111.9%
same,"Stability, % Accuracy, Auto-sampler 24 hrs",[5]; QC3 (1200 pg/mL),102.2%
same,"Stability, % Accuracy, Auto-sampler 48 hrs",[5]; QC3 (1200 pg/mL),105.6%
same,Stability in extracted matrix,"[5]; auto-sampler, up to 48 h",stable in extracted matrix for up to 48 h
same,OF/blood Conc. (*100),"[6]; C0 (fasted), Resting","19 (14, 24)"
same,Tacrolimus Conc. in OF,"[6]; C0 (fasted), Resting","1003 (747, 1348) pg/mL"
same,Tacrolimus blood Conc.,"[6]; C0 (fasted), Resting","5.5 (4.7, 6.3) ng/mL"
same,OF/blood Conc. (*100),"[6]; C0 (fasted), Rinsed","11 (9, 13)"
same,Tacrolimus Conc. in OF,"[6]; C0 (fasted), Rinsed","584 (436, 782) pg/mL"
same,Tacrolimus blood Conc.,"[6]; C0 (fasted), Rinsed","5.4 (4.7, 6.3) ng/mL"
same,OF/blood Conc. (*100),"[6]; C0 (fasted), Stimulated","3 (2, 4)"
same,Tacrolimus Conc. in OF,"[6]; C0 (fasted), Stimulated","164 (119, 226) pg/mL"
same,Tacrolimus blood Conc.,"[6]; C0 (fasted), Stimulated","5.5 (4.8, 6.2) ng/mL"
same,OF/blood Conc. (*100),"[6]; C2 (fed), Resting","7 (5, 9)"
same,Tacrolimus Conc. in OF,"[6]; C2 (fed), Resting","635 (437, 923) pg/mL"
same,Tacrolimus blood Conc.,"[6]; C2 (fed), Resting","9.4 (7.6, 11.7) ng/mL"
same,OF/blood Conc. (*100),"[6]; C2 (fed), Rinsed","5 (4, 7)"
same,Tacrolimus Conc. in OF,"[6]; C2 (fed), Rinsed","468 (347, 630) pg/mL"
same,Tacrolimus blood Conc.,"[6]; C2 (fed), Rinsed","9.0 (7.4, 11.0) ng/mL"
same,OF/blood Conc. (*100),"[6]; C2 (fed), Stimulated","3 (2, 4)"
same,Tacrolimus Conc. in OF,"[6]; C2 (fed), Stimulated","235 (167, 330) pg/mL"
same,Tacrolimus blood Conc.,"[6]; C2 (fed), Stimulated","8.8 (7.6, 10.2) ng/mL"
